Measurements reported in patent publication US20240002391A1, “4-ALKOXYPYRROLO[2,1-F][1,2,4]TRIAZINES AND PREPARATION AND USES THEREOF” (BioSplice Therapeutics, Inc., priority 2022, published 2024).

These compounds were tested against recombinant DYRK1A kinase (Homo sapiens (Human), UniProt Q13627) (assay: DYRK1A kinase assay (Ser/Thr 18 peptide Z-lyte FRET)). Details: DYRK1A kinase activity, Z-lyte Ser/Thr 18 peptide, 15 μM ATP; method text calls the value IC50; read-out: EC50 (the source's name).
Format: biochemical
Summary of the method: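 Recombinant enzyme (0.25 μg/mL final) was incubated with 15 μM ATP, 4 μM Ser/Thr 18 peptide and compound (11-point 1:3 series from 10 μM) for 1 h at room temperature, in duplicate. Development reagent was added for 1 h, and coumarin/fluorescein emission ratio gave % phosphorylation; IC50 by non-linear regression.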
Work on `COc1nc(N[C@@H]2CCN(C)CC2(F)F)nn2ccc(-c3cc(F)c4nccn4c3)c12` [Compound 434, (R)—N-(3,3-Difluoro-1-methylpiperidin-4-yl)-5-(8-fluoroimidazo[1,2-a]pyridin-6-yl)-4-methoxypyrrolo[2,1-f][1,2,4]triazin-2-amine] yielded an IC50 of 4.9 nM.
For `COc1nc(N[C@@H]2CCN(C3COC3)CC2(F)F)nn2ccc(-c3cc(F)c4nccn4c3)c12` [Compound 435, (R)—N-(3,3-Difluoro-1-(oxetan-3-yl)piperidin-4-yl)-5-(8-fluoroimidazo[1,2-a]pyridin-6-yl)-4-methoxypyrrolo[2,1-f][1,2,4]triazin-2-amine], the IC50 was 8.9 nM.
For `CNC(=O)c1cnc2ccc(-c3ccn4nc(N[C@H]5CC[C@@H](OC)CC5)nc(OC)c34)cn12` [Compound 439, 6-(4-Methoxy-2-((cis-4-methoxycyclohexyl)amino)pyrrolo[2,1-f][1,2,4]triazin-5-yl)-N-methylimidazo[1,2-a]pyridine-3-carboxamide], the IC50 was 2.3 nM.
With `CNC(=O)c1cnc2ccc(-c3ccn4nc(N[C@H]5CC[C@](C)(O)CC5)nc(OC)c34)cn12` [Compound 441, 6-(2-(((1r,4r)-4-Hydroxy-4-methylcyclohexyl)amino)-4-methoxypyrrolo[2,1-f][1,2,4]triazin-5-yl)-N-methylimidazo[1,2-a]pyridine-3-carboxamide] the IC50 was 1.1 nM.
`CNC(=O)c1cnc2ccc(-c3ccn4nc(N[C@H]5CC[C@](C)(OC)CC5)nc(OC)c34)cn12` [Compound 445, 6-(4-Methoxy-2-(((1r,4r)-4-methoxy-4-methylcyclohexyl)amino)pyrrolo[2,1-f][1,2,4]triazin-5-yl)-N-methylimidazo[1,2-a]pyridine-3-carboxamide] was tested, and the IC50 was 2.1 nM.
With `CNC(=O)[C@]1(C)C[C@@H](Nc2nc(OC)c3c(-c4ccc5nc(C)n(CC(F)F)c5c4)ccn3n2)C1` [Compound 502, trans-3-((5-(1-(2,2-Difluoroethyl)-2-methyl-1H-benzo[d]imidazol-6-yl)-4-methoxypyrrolo[2,1-f][1,2,4]triazin-2-yl)amino)-N,1-dimethylcyclobutane-1-carboxamide] the IC50 was 1.4 nM.
Work on `COc1nc(N[C@H]2C[C@](C)(C(=O)NC3CC3)C2)nn2ccc(-c3ccc4nc(C)n(CC(F)F)c4c3)c12` [Compound 503, trans-N-Cyclopropyl-3-((5-(1-(2,2-difluoroethyl)-2-methyl-1H-benzo[d]imidazol-6-yl)-4-methoxypyrrolo[2,1-f][1,2,4]triazin-2-yl)amino)-1-methylcyclobutane-1-carboxamide] yielded an IC50 of 2.3 nM.
`COc1nc(N[C@H]2C[C@](C)(C(=O)NC3CC(F)(F)C3)C2)nn2ccc(-c3ccc4nc(C)n(CC(F)F)c4c3)c12` [Compound 504, trans-N-(3,3-Difluorocyclobutyl)-3-((5-(1-(2,2-difluoroethyl)-2-methyl-1H-benzo[d]imidazol-6-yl)-4-methoxypyrrolo[2,1-f][1,2,4]triazin-2-yl)amino)-1-methylcyclobutane-1-carboxamide] gave an IC50 of 1.4 nM.
`COc1nc(N[C@H]2CN(C3COC3)C[C@H]2F)nn2ccc(-c3ccc4nc(C)n(CC(F)F)c4c3)c12` [Compound 505, 5-(1-(2,2-Difluoroethyl)-2-methyl-1H-benzo[d]imidazol-6-yl)-N-((3S,4R)-4-fluoro-1-(oxetan-3-yl)pyrrolidin-3-yl)-4-methoxypyrrolo[2,1-f][1,2,4]triazin-2-amine] was tested, and the IC50 was 3.8 nM.
`COc1nc(N[C@@H]2CN(C3COC3)C[C@@H]2F)nn2ccc(-c3ccc4nc(C)n(CC(F)F)c4c3)c12` [Compound 506, 5-(1-(2,2-Difluoroethyl)-2-methyl-1H-benzo[d]imidazol-6-yl)-N-((3R,4S)-4-fluoro-1-(oxetan-3-yl)pyrrolidin-3-yl)-4-methoxypyrrolo[2,1-f][1,2,4]triazin-2-amine] gave an IC50 of 2.3 nM.
`COc1nc(NC2CCC(=O)N(C)C2)nn2ccc(-c3ccc4nc(C)n(CC(F)F)c4c3)c12` (centres unmarked) [Compound 507, 5-((5-(1-(2,2-Difluoroethyl)-2-methyl-1H-benzo[d]imidazol-6-yl)-4-methoxypyrrolo[2,1-f][1,2,4]triazin-2-yl)amino)-1-methylpiperidin-2-one] showed an IC50 of 3.1 nM.
With `Cc1nc2ccc(-c3ccn4nc(N[C@H]5CC[C@](C)(O)CC5)nc(OC5COC5)c34)cc2n1CC(F)F` [Compound 508, (1r,4r)-4-((5-(1-(2,2-Difluoroethyl)-2-methyl-1H-benzo[d]imidazol-6-yl)-4-(oxetan-3-yloxy)pyrrolo[2,1-f][1,2,4]triazin-2-yl)amino)-1-methylcyclohexan-1-ol] the IC50 was 24.3 nM.
Work on `COc1nc(N[C@H]2C[C@@](C)(O)C2)nn2ccc(-c3cc(F)c4nc(C)n(CC(F)F)c4c3)c12` [Compound 509, cis-3-((5-(1-(2,2-Difluoroethyl)-4-fluoro-2-methyl-1H-benzo[d]imidazol-6-yl)-4-methoxypyrrolo[2,1-f][1,2,4]triazin-2-yl)amino)-1-methylcyclobutan-1-ol] yielded an IC50 of 1.4 nM.
Compound `COc1nc(N[C@@H]2CN(C(C)=O)C[C@@H]2F)nn2ccc(-c3cc(F)c4nc(C)n(CC(F)F)c4c3)c12` [Compound 513, 1-((3R,4S)-3-((5-(1-(2,2-Difluoroethyl)-4-fluoro-2-methyl-1H-benzo[d]imidazol-6-yl)-4-methoxypyrrolo[2,1-f][1,2,4]triazin-2-yl)amino)-4-fluoropyrrolidin-1-yl)ethan-1-one] has an IC50 of 2.8 nM.
In the case of `COc1nc(N[C@H]2CCN(CCO)C[C@H]2F)nn2ccc(-c3cc(F)c4nc(C)n(CC(F)F)c4c3)c12` [Compound 519, 2-((3R,4S)-4-((5-(1-(2,2-Difluoroethyl)-4-fluoro-2-methyl-1H-benzo[d]imidazol-6-yl)-4-methoxypyrrolo[2,1-f][1,2,4]triazin-2-yl)amino)-3-fluoropiperidin-1-yl)ethan-1-ol], the IC50 is reported as 2.7 nM.
`COc1nc(N[C@@H]2CCN(C(C)=O)C[C@@H]2F)nn2ccc(-c3cc(F)c4nc(C)n(CC(F)F)c4c3)c12` [Compound 520, 1-((3S,4R)-4-((5-(1-(2,2-Difluoroethyl)-4-fluoro-2-methyl-1H-benzo[d]imidazol-6-yl)-4-methoxypyrrolo[2,1-f][1,2,4]triazin-2-yl)amino)-3-fluoropiperidin-1-yl)ethan-1-one] was tested, and the IC50 was 3 nM.
Work on `COc1nc(N[C@H]2CCN(C(C)=O)C[C@H]2F)nn2ccc(-c3cc(F)c4nc(C)n(CC(F)F)c4c3)c12` [Compound 521, 1-((3R,4S)-4-((5-(1-(2,2-Difluoroethyl)-4-fluoro-2-methyl-1H-benzo[d]imidazol-6-yl)-4-methoxypyrrolo[2,1-f][1,2,4]triazin-2-yl)amino)-3-fluoropiperidin-1-yl)ethan-1-one] yielded an IC50 of 2.6 nM.
For `COc1nc(N[C@@H]2CCN(CCO)CC2(F)F)nn2ccc(-c3cc(F)c4nc(C)n(CC(F)F)c4c3)c12` [Compound 525, (R)-2-(4-((5-(1-(2,2-Difluoroethyl)-4-fluoro-2-methyl-1H-benzo[d]imidazol-6-yl)-4-methoxypyrrolo[2,1-f][1,2,4]triazin-2-yl)amino)-3,3-difluoropiperidin-1-yl)ethan-1-ol], the IC50 was 2.4 nM.
`COc1nc(N[C@@H]2CCN(C(C)=O)CC2(F)F)nn2ccc(-c3cc(F)c4nc(C)n(CC(F)F)c4c3)c12` [Compound 526, (R)-1-(4-((5-(1-(2,2-Difluoroethyl)-4-fluoro-2-methyl-1H-benzo[d]imidazol-6-yl)-4-methoxypyrrolo[2,1-f][1,2,4]triazin-2-yl)amino)-3,3-difluoropiperidin-1-yl)ethan-1-one] showed an IC50 of 1.6 nM.
In the case of `COc1nc(N[C@H]2CCN(CCO)C[C@H]2F)nn2ccc(-c3cc(F)c4nc(C)n(C(C)C)c4c3)c12` [Compound 542, 2-((3R,4S)-3-Fluoro-4-((5-(4-fluoro-1-isopropyl-2-methyl-1H-benzo[d]imidazol-6-yl)-4-methoxypyrrolo[2,1-f][1,2,4]triazin-2-yl)amino)piperidin-1-yl)ethan-1-ol], the IC50 is reported as 1.1 nM.
Compound `COc1nc(N[C@H]2CCN(C(C)=O)C[C@H]2F)nn2ccc(-c3cc(F)c4nc(C)n(C(C)C)c4c3)c12` [Compound 544, 1-((3R,4S)-3-Fluoro-4-((5-(4-fluoro-1-isopropyl-2-methyl-1H-benzo[d]imidazol-6-yl)-4-methoxypyrrolo[2,1-f][1,2,4]triazin-2-yl)amino)piperidin-1-yl)ethan-1-one] has an IC50 of 0.9 nM.
For `COc1nc(N[C@@H]2CCN(CCO)CC2(F)F)nn2ccc(-c3cc(F)c4nc(C)n(C(C)C)c4c3)c12` [Compound 549, (R)-2-(3,3-Difluoro-4-((5-(4-fluoro-1-isopropyl-2-methyl-1H-benzo[d]imidazol-6-yl)-4-methoxypyrrolo[2,1-f][1,2,4]triazin-2-yl)amino)piperidin-1-yl)ethan-1-ol], the IC50 was 2.6 nM.
Compound `COc1nc(N[C@@H]2CCN(C(C)=O)CC2(F)F)nn2ccc(-c3cc(F)c4nc(C)n(C(C)C)c4c3)c12` [Compound 550, (R)-1-(3,3-Difluoro-4-((5-(4-fluoro-1-isopropyl-2-methyl-1H-benzo[d]imidazol-6-yl)-4-methoxypyrrolo[2,1-f][1,2,4]triazin-2-yl)amino)piperidin-1-yl)ethan-1-one] has an IC50 of 1.6 nM.
With `COc1nc(N[C@@H]2CCN(C3COC3)CC2(F)F)nn2ccc(-c3cc(F)c4nc(C)n(C(C)C)c4c3)c12` [Compound 551, (R)—N-(3,3-Difluoro-1-(oxetan-3-yl)piperidin-4-yl)-5-(4-fluoro-1-isopropyl-2-methyl-1H-benzo[d]imidazol-6-yl)-4-methoxypyrrolo[2,1-f][1,2,4]triazin-2-amine] the IC50 was 1.6 nM.
`COc1nc(N[C@H]2CC[C@](C)(O)CC2)nn2ccc(-c3ccn4ncnc4c3)c12` [Compound 554, (1r,4r)-4-((5-([1,2,4]Triazolo[1,5-a]pyridin-7-yl)-4-methoxypyrrolo[2,1-f][1,2,4]triazin-2-yl)amino)-1-methylcyclohexan-1-ol] was tested, and the IC50 was 7.7 nM.
Work on `CCO[C@H]1C[C@@H](Nc2nc(OC)c3c(-c4ccc5ncnn5c4)ccn3n2)C1` [Compound 555, 5-([1,2,4]Triazolo[1,5-a]pyridin-6-yl)-N-(cis-3-ethoxycyclobutyl)-4-methoxypyrrolo[2,1-f][1,2,4]triazin-2-amine] yielded an IC50 of 5 nM.
